# Tested on: AsOMT116
# Test: Enzyme reaction of crude recombinant AsOMT116 with thujaplicatin and S-adenosylmethionine, product analysed by GC-MS
# Assay type: biochemical, Anthrissus sylvestris
# Conditions: 0.01 mM substrate, 0.04 mM S-adenosylmethionine, about 3 mg crude enzyme from E. coli, pH 7.5, 30° C., one hour; product identified as 5-methylthujaplicatin by GC-MS
# Protocol: To clarify the biochemical enzyme functions, the enzymes were expressed in Escherichia coli. Using the plasmid for expression of AsOMT116 Escherichia coli obtained above, Escherichia coli BL21 (DE3) strain was transformed in a conventional manner. The resulting transformants were inoculated in 4 ml of LB medium (10 g/l tryptone peptone, 5 g/l yeast extract, 1 g/l NaCl) containing 50 μg/ml of ampicillin followed by shake culture at 37° C. overnight. When the cells reached the stationary phase, 4 ml of the culture broth was inoculated into 80 ml of fresh medium of the same composition, followed by shake culture at 37° C. At the point when the cell turbidity (OD600) reached approximately 0.5, 0.5 mM IPTG in a final concentration was added to the cells, followed by shake culture at 18° C. for 20 hours.
# The following procedures were all carried out at 4° C. The transformants cultured were collected by centrifugation (5,000×g, 10 minutes) and suspended by adding 1 ml/g cell of lysis buffer (20 mM HEPES buffer (pH 7.5), 14 mM β-mercaptoethanol). Subsequently, the suspension was ultrasonicated (15 secs.×8 times) and then centrifuged (15,000×g, 15 minutes). The supernatant (soluble fraction) obtained was recovered as a crude enzyme solution. The crude enzyme solution was used for enzyme analysis.
# Conditions for the enzyme reaction are as follows. […]
compound,measurement,value
COc1cc(C[C@H]2COC(=O)[C@@H]2Cc2cc(O)c(O)c(OC)c2)ccc1O [thujaplicatin],lignan methylation activity (methylation of substrate by AsOMT116),specifically methylates the 5-position

# Reference: patent US8435778B2, “Gene encoding lignan methyltransferase and use thereof” (Suntory Holdings Limited, priority 2010, dated 2013)
